Values quoted from earlier work in patent US20230310464A1, “USE OF C[…] THE TREATMENT OF SEIZURES ASSOCIATED WITH RARE […] SYNDROMES RELATED TO BRAIN INJURY” (GW Research Limited, priority 2020, published 2023).

Legend:
[1] = system: patients with Dravet and Lennox-Gastaut syndrome; details: purified pharmaceutical formulation of CBD, three trials; cited from earlier work
[2] = system: new-born piglets with HIE; details: Alvarez et al. (2008); cited from earlier work

**Q.** What does the source list for `C=C(C)[C@@H]1CCC(C)=C[C@H]1c1c(O)cc(CCCCC)cc1O` [CBD, cannabidiol]?
**A.** efficacy in randomized control trials (in words) [1]: showed efficacy; effect on seizures in piglets (in words) [2]: A reduction in seizures was reported; proportion of CBD-treated piglets that still maintained significant seizures [2]: half
